Legend:
Assay in all cases: relative viability (nuclei count vs DMSO), 5 days (fraction); higher = more cells survive
[1] = compound: C1CC2=C(C1)C=C(C=C2)OC3=NC(=C4C(=N3)N(C=N4)CC5=CC=C(C=C5)C6=CC=CC=C6)N[C@@H](CC7=CC=CC=C7)CO [QS11] + N=C(N)NC(=N)NCCc1ccccc1 [Phenformin] (partner 250 µM)
In short: (§1)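 Each reported value is a median over duplicate plates. It expresses relative viability: treated-well nuclei count divided by vehicle-well nuclei count. Lung cancer cell lines in 1536-well plates were dosed by pin tool a day after seeding, alone with one drug or with a fixed anchor-drug dose plus five library-drug doses (not always all listed) in √10 steps, and nuclei were counted after 5 days.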

[2] = compound: CC1=C(C=C(C=C1)NC(=O)C2=CC(=CC=C2)C(C)(C)C#N)NC3=CC4=C(C=C3)N=CN(C4=O)C [AZ628] + COc1cccc2cc(-c3nc([C@H]4CC[C@H](C(=O)O)CC4)n4ncnc(N)c34)[nH]c12 [OSI-027] (partner 0.5 µM)
In short: as §1

[3] = compound: C[As](C)SC[C@H](NC(=O)CC[C@H](N)C(=O)O)C(=O)NCC(=O)O [Darinaparsin] + CC(C)C[C@H](NC(=O)[C@H](Cc1ccccc1)NC(=O)c1cnccn1)B(O)O [Bortezomib] (partner 0.002 µM)
In short: as §1

[4] = compound: C[As](C)SC[C@H](NC(=O)CC[C@H](N)C(=O)O)C(=O)NCC(=O)O [Darinaparsin] + Cc1cc(Nc2cc(N3CCN(C)CC3)nc(Sc3ccc(NC(=O)C4CC4)cc3)n2)n[nH]1 [Tozasertib] (partner 0.1 µM)
In short: as §1

LCLC-97TM1
relative viability ([1]; first compound 0.08 µM): 0.371 | relative viability ([1]; first compound 0.253 µM): 0.431 | relative viability ([1]; first compound 2.53 µM): 0.354 | relative viability ([1]; first compound 8 µM): 0.294 | relative viability ([2]; first compound 0.08 µM): 0.577 | relative viability ([2]; first compound 0.253 µM): 0.328 | relative viability ([2]; first compound 0.8 µM): 0.315 | relative viability ([2]; first compound 2.53 µM): 0.327 | relative viability ([2]; first compound 8 µM): 0.198 | relative viability ([3]; first compound 0.08 µM): 0.765 | relative viability ([3]; first compound 0.8 µM): 0.513 | relative viability ([3]; first compound 2.53 µM): 0.416 | relative viability ([3]; first compound 8 µM): 0.481 | relative viability ([4]; first compound 0.08 µM): 0.215 | relative viability ([4]; first compound 0.8 µM): 0.199 | relative viability ([4]; first compound 2.53 µM): 0.194 | relative viability ([4]; first compound 8 µM): 0.197

— the supplement of paper PMC10307832
